Experimental data from patent US20170367995A1, “TREATMENT OF EARLY STAGE PARKINSON'S DISEASE WITH A HYDROXYTYROSOL-CONTAINING POLYPHENOL FORMULATION” (Allevium Therapeutics, Inc., priority 2016, published 2017).

Legend:
[1] = system: subject diagnosed with Parkinson's disease; test: Case of a Parkinson's subject given Olivenol Plus capsules (Example 1); assay type: in vivo, human; settings: orally administered L-dopa for over three months before the polyphenol treatment, one subject
Protocol: The subject was given an olive polyphenol composition orally, in the form of two Olivenol Plus® capsules administered three times per day. As each capsule contains 12 mg olive polyphenols, including about 5 mg hydroxytyrosol, the daily dose given to the subject was 72 mg olive polyphenols, including 30 mg hydroxytyrosol.

NF-κB = test: Western blot on the mesencephalic region: NF-κB; design: species or system male adult CD1 mice
Protocol: (§1) In vitro testing was then carried out on the mesencephalic region, with respect to iNOS production, IkB-α, NF-κB, Bax, and Bcl2. Western blot analyses and corresponding bar graphs are presented in FIG. 5 (iNOS production, optical density normalized to β-actin), FIG. 6 (IkB-α, also normalized to β-actin), FIG. 7 (NF-κB, optical density normalized to lamin A/C), FIG. 8 (Bax, normalized to β-actin), and FIG. 9 (Bcl2, normalized to β-actin). In each case, the effect of hydroxytyrosol is marked.

iNOS production = test: Western blot on the mesencephalic region: iNOS; design: species or system male adult CD1 mice
Protocol: as §1

Bcl2 = test: Western blot on the mesencephalic region: Bcl2; design: species or system male adult CD1 mice
Protocol: as §1

IkB-α = test: Western blot on the mesencephalic region: IkB-α; design: species or system male adult CD1 mice
Protocol: as §1

Bax = test: Western blot on the mesencephalic region: Bax; design: species or system male adult CD1 mice
Protocol: as §1

[2] = even at high concentrations; Auñon-Calles et al. (2013); cited from earlier work
[3] = system: rotenone-induced PD state; test: Pole test (body coordination and balance) in rotenone mouse model of PD; assay type: in vivo, male adult CD1 mice; settings: hydroxytyrosol 10 mg/kg/day plus rotenone 5 mg/kg/day i.p., 28 days, relative to rotenone only
endothelial cell = test: Endothelial cell based assay (pro-/anti-oxidant effect)
Description: Without wishing to be bound by theory, it may be postulated that the removal of hydroxytyrosol from its original matrix and natural environment can result in adverse effects, and that at least some of the naturally occurring associated polyphenols are necessary to include in a therapeutic hydroxytyrosol formulation.

[4] = system: cells from the mesencephalic region; test: Histology of cells from the mesencephalic region, rotenone mouse model; assay type: in vivo, male adult CD1 mice; settings: hydroxytyrosol-treated relative to rotenone-only ("vehicle") group

Structure (SMILES) | improvement after treatment [1] | NF-κB, optical density normalized to lamin A/C, FIG. 7 (NF-κB) | iNOS production, optical density normalized to β-actin, FIG. 5 (iNOS production) | Bcl2, normalized to β-actin, FIG. 9 (Bcl2) | IkB-α, normalized to β-actin, FIG. 6 (IkB-α) | Bax, normalized to β-actin, FIG. 8 (Bax) | toxicity [2] | pole test time to turn (orientation time), FIG. 1B [3] | pole test total time (orientation and complete descent), FIG. 1A [3] | pro-oxidant / anti-oxidant effect (endothelial cell) | histologic injury score, FIG. 4 [4]
N[C@@H](Cc1ccc(O)c(O)c1)C(=O)O [L-dopa] | no noticeable improvement |  |  |  |  |  |  |  |  |  | 
OCCc1ccc(O)c(O)c1 [hydroxytyrosol, 4-(hydroxyethyl)-1,2-benzene diol] |  | marked | marked | marked | marked | marked | no toxicity has been detected | significantly lowers | significantly lowers | pro-oxidant effect | significantly reduces
